Measured values reported in paper PMC4626089, “In Vitro Mutational Analysis of the β2 Adrenergic Receptor, an In Vivo Surrogate Odorant Receptor” (PLoS ONE, 2015).

Columns and labels:
[1] = target: mβ2AR::GFP fusion mouse E268A (Mus musculus, UniProt P18762, E268A); assay: cell-based; details: read-out: Maximum response (% of mβ2AR::GFP), span of mutant over span of wild type; Fig 4K
Procedure: (§1) Calcium-based Fluorometric Imaging Plate Reader (FLIPR) experiments were performed as described previously. Mutants analyzed in each figure come from the same FLIPR experiment. […] Relative Fluorescent Units were baseline corrected by subtracting the lowest fluorescent measure for each experiment and a curve was fitted using a 3 parameters model (Hill Slope = 1) using the GraphPad software. Half maximal effective concentrations (EC50) were then calculated and are given in nM. The maximum response, as a percent of wild type, was calculated by reporting the span for a mutant over the span for the wild type.

[2] = target: mβ2AR::GFP fusion ΔCt➔E338 (Mus musculus, UniProt P18762); assay: cell-based; details: read-out: Maximum response (% of mβ2AR::GFP)
Procedure: as §1

mβ2AR::GFP fusion Y326A = mβ2AR::GFP fusion Y326A (Mus musculus, UniProt P18762, Y326A); assay: cell-based; details: read-out: Maximum response (% of mβ2AR::GFP)
Procedure: as §1

[3] = target: mβ2AR::GFP fusion ΔCt➔L339 (Mus musculus, UniProt P18762); assay: cell-based; details: read-out: Maximum response (% of mβ2AR::GFP)
Procedure: as §1

[4] = target: mβ2AR::GFP fusion ΔCt➔Y350 (Mus musculus, UniProt P18762); assay: cell-based; details: read-out: Maximum response (% of mβ2AR::GFP)
Procedure: as §1

[5] = target: mβ2AR::GFP fusion mouse C327R (Mus musculus, UniProt P18762, C327R); assay: cell-based; details: read-out: Maximum response (% of mβ2AR::GFP)
Procedure: as §1

[6] = target: mβ2AR::GFP fusion no-NxS (N6A and N15A) (Mus musculus, UniProt P18762, N15A/N6A); assay: cell-based; details: read-out: Maximum response (% of mβ2AR::GFP)
Procedure: as §1

[7] = target: mβ2AR::GFP fusion mouse RDY (Mus musculus, UniProt P18762, D130R/R131D); assay: cell-based; details: Fig 4K
Procedure: as §1

[8] = target: mβ2AR::GFP fusion ΔCt➔A335 (Mus musculus, UniProt P18762); details: FLIPR dose response; Fig 5E
Procedure: as §1

[9] = target: mβ2AR::GFP fusion NtΔ9AA/ΔCt➔Y350/ΔC341 (Mus musculus, UniProt P18762, DEL341, form not given); details: span of mutant over span of wild type; Fig 3
Procedure: as §1

[10] = target: mβ2AR::GFP fusion NtΔ9AA/mβ2AR/M71-Ct (Mus musculus, UniProt P18762); details: span of mutant over span of wild type; Fig 7
Procedure: as §1

[11] = target: mβ2AR::GFP fusion ΔCt➔Q337 (Mus musculus, UniProt P18762); details: FLIPR dose response; Fig 5E
Procedure: as §1

[12] = target: mβ2AR::GFP fusion mβ2AR/M71-Ct (Mus musculus, UniProt P18762); details: span of mutant over span of wild type; Fig 7
Procedure: as §1

[13] = tested on: mβ2AR::GFP fusion NtΔ9AA/Y326A/ΔCt➔R328; details: FLIPR dose response; Fig 6E and 6F, comparable to mock
Procedure: as §1

[14] = target: mβ2AR::GFP fusion M71-Nt/mβ2AR/M71-Ct (Mus musculus, UniProt P18762); details: span of mutant over span of wild type; Fig 7
Procedure: as §1

[15] = tested on: mβ2AR::GFP fusion M71-Nt/Y326A/ΔCt➔R328; details: FLIPR dose response; Fig 6E and 6F, comparable to mock
Procedure: as §1

[16] = target: mβ2AR::GFP fusion no-NxS/Y326A/ΔCt➔R328 (Mus musculus, UniProt P18762, N15A/N6A/Y326A); details: FLIPR dose response; Fig 6E and 6F, comparable to mock
Procedure: as §1

[17] = target: mβ2AR::GFP fusion Y326A/ΔCt➔R328 (Mus musculus, UniProt P18762, Y326A); details: FLIPR dose response; Fig 6E, comparable to no plasmid-mock transfection
Procedure: as §1

[18] = tested on: rat I7 (rI7) OR, rI7(RDY); set-up: method as in PMID 16990513, PMID 25550517; details: neurons expressing rI7(RDY); cited from earlier work

SMILES	Emax [1]	Emax [2]	Emax (mβ2AR::GFP fusion Y326A)	Emax [3]	Emax [4]	Emax [5]	Emax [6]	Emax ([7]; read-out: Maximum response (% of mβ2AR::GFP), span of mutant over span of wild type)	Maximum response (% of mβ2AR::GFP) ([7]; span of mutant over span of wild type)	isoprenaline-mediated responses [8]	Maximum response (% of mβ2AR::GFP) [9]	Maximum response (% of mβ2AR::GFP) [10]	isoprenaline-mediated responses [11]	Maximum response (% of mβ2AR::GFP) [12]	induction by isoprenaline [13]	Maximum response (% of mβ2AR::GFP) [14]	induction by isoprenaline [15]	induction by isoprenaline [16]	capacity to signal after isoprenaline exposure [17]	Ca2+ signals in response to octanal [18]
CC(C)NCC(O)c1ccc(O)c(O)c1 (centres unmarked) [Isoprenaline, isoprenaline]	51%	19%	89%	27%	70%	58%	120%	58%	~ 60%	do not find isoprenaline-mediated responses	77%	34%	do not find isoprenaline-mediated responses	47%	not induced	32%	not induced	not induced	no capacity to signal	
CCCCCCCC=O [octanal]																				do not show Ca^2+ signals
